Key:
[1] = tested on: A172; experiment: WST-1 proliferation assay, A172; assay type: cell-based, human
Procedure: (§1) AP-121 was prepared as 5 mM stock solution in distilled sterile water, Temozolomide (TMZ) (Haorui Pharma-Chem, Inc., Edison, N.J.) was prepared as 100 mM in sterile filtrated DMSO; Adriamycin (ADR) (Sigma) was prepared as 1 mM in distilled sterile water; Camptothecin (CTP) (Sigma) was prepared as 10 mM solution in 0.1 N NaOH; Tarceva (Proteinkinase, Germany) was prepared as 5 mM solution in sterile DMSO. All compound stocks were kept at −20° C. 2000 cells were plated in each well of 96-well flat bottom plates, and incubated overnight at 37 °C in 5% CO2. The growth of plated cells was measured by adding […] of WST-1 reagent (Roche Applied Sciences, Germany) to 3 control wells and measuring the absorbance at 650 nm and at 450 nm, respectively, with a SpectraMax250 plate reader. […] After this incubation, VVST-1 reagent was added to the wells and OD650-OD450 values were calculated as before. six wells were assayed for each conditions and standard deviation was determined: all experiments were performed at least three times independently. […] Six different concentrations of each drug were used in combinations index measurements and compared to +/− cells, and compared to controls without compound.

[2] = tested on: A431; conditions: mean ± SD from three independent experiments, read-out: ED50 values for induction of apoptosis; cited from earlier work
[3] = tested on: LNCaP androgen-sensitive human prostate adenocarcinoma cells; experiment: Apo-ONE Homogenous Caspase-3/7 Assay in LNCaP cells; assay type: cell-based
Procedure: FIG. 1. Depicts the in vitro effects of 1-O-octadecyl-2-O-methyl-glycero-3-phosphocholine (final concentration 10 μM), (ionizing) radiation (absorbed dose of 5 Gray units; indicated as “RT”), and a combination thereof on programmed cell death (apoptosis) and the survival rate of LNCaP androgen-sensitive human prostate adenocarcinoma cells. Apoptosis was determined using the Apo-ONE™ Homogenous Caspase-317 Assay, Promega, Inc., Madison, Wis., USA according to the manufacturers instructions. The percentage of living cancer cells was estimated by means of trypan blue dye exclusion as described (Freshney, R. I. (1994) Culture of Animal Cells: A Manual of Basic Technique. 3rd Ed. Wiley-Liss. New York. USA). The cells were exposed to radiation six hours after (FIG. 1A), concomitantly with (FIG. 1B), or six hours before administration of 1-O-octadecyl-2-O-methyl-glycero-3-phospho-choline (FIG. 1C). The caspase assay was performed 12 hours after exposure to radiation. The respective data shown represent the average of two independent experiments.
First, the in vitro effects of 1-O-octadecyl-2-O-methyl-glycero-3-phosphocholine, (ionizing) radiation, and a combination thereof on programmed cell death (apoptosis) and the survival rate of LNCaP androgen-sensitive human prostate adenocarcinoma cells were measured. The LNCaP cell line was established from a metastatic lesion of the adenocarcinoma. The cells were treated with a final concentration of 10 μM 1-O-octadecyl-2-O-methyl-glycero-3-phosphocholine and (ionizing) radiation corresponding to an absorbed dose of 5 Gray units.
Apoptosis was determined using the Apo-ONE™ Homogenous Caspase-3/7 Assay, Promega, Inc., Madison, VV1, USA according to the manufacturers instructions. The percentage of living tumor cells was estimated by means of trypan blue dye exclusion as described (Freshney, R. I. (1994) Culture of Animal Cells: A Manual of Basic Technique. 3rd Ed. Wiley-Liss. New York. USA)
The cells were exposed to radiation six hours after (FIG. 1A), concomitantly with (FIG. 1B), or six hours before administration of 1-O-octadecyl-2-O-methyl-glycero-3-phospho-choline (FIG. 1C). The caspase assay was performed 12 hours after exposure to radiation. The respective data shown represent the average of two independent experiments.
In a further approach, 10 μM 1-O-octadecyl-2-O-methyl-glycero-3-phosphocholine (final concentration; “CHEM”) and (ionizing) radiation (5 Gray units; “RT”) were administered simultaneously to the LNCaP cells but the subsequent incubation period was extended to 24 hours. Apoptosis was measured using the Apo-ONE™ Homogenous Caspase-3/7 Assay as described above and expressed as relative fluorescence units (RFLU). The percentage of apoptotic cells was determined by flow cytometric analysis of annexin V-PE positive-stained and 7-AAD (7-Amino ActinomycinD) negative-stained cells (both purchased from BD Biosciences, San Jose, Calif., USA) according to established standard protocols. The data represent means±SEM from three independent experiments.
Apoptosis was measured using the Apo-ONE™ Homogenous Caspase-3/7 Assay as described above and expressed as relative fluorescence units (RFLU). The percentage of apoptotic cells was determined via annexin V-PE/7-AAD staining as described above. The caspase-317 assay and annexin staining were performed 22 hours after CHEM treatment.

[4] = tested on: U87MG; experiment: WST-1 proliferation assay, U87MG; assay type: cell-based, human
Procedure: as §1

IC50 ([4]; Homo sapiens, U-87 MG): 8.5 µM
EC50 ([4]; Homo sapiens, U-87 MG, single agent or compound mixture as labelled (arrays A2, A1), read-out: ED50 (the source's name)): 6.8 µM
SMILES: CCCCCCCCCCCCCCCCCCOCC(COP(=O)([O-])OCC[N+](C)(C)C)OC (racemic) [AP-121, 1-O-octadecyl-2-O-methyl-glycero-3-phosphocholine]
IC50 ([1]; Homo sapiens, A 172): 4.6 µM
EC50 ([1]; Homo sapiens, A 172, single agent or compound mixture as labelled (arrays A2, A1), read-out: ED50 (the source's name)): 4.2 µM
normalized ED50 (arrays B2, B1) ([1]; ratio to the largest value): 0.62
EC50 [2]: 15.5 ± 2.9 µM
increase in apoptotic response (caspase-3/7 assay) ([3]; 10 μM administered six hours prior to radiation (5 Gray), combined treatment (FIG. 1A)): > 2.5 fold
extent of apoptosis, increase in cells only exposed to the chemical as compared to the combined treatment ([3]; 10 μM, radiation six hours before (FIG. 1C)): about 25%
Caspase-3/7 activity (RFLU) ([3]; AD (androgen deprivation, two days) + 5 μM CHEM, AD alone 81): 126 RFLU
Caspase-3/7 activity (RFLU) ([3]; AD + 10 μM CHEM): 115 RFLU
Caspase-3/7 activity (RFLU) ([3]; AD + R1881 (two days prior) + 5 μM CHEM): 453 RFLU
Caspase-3/7 activity (RFLU) ([3]; AD + R1881 (two days prior) + 10 μM CHEM): 962 RFLU
Caspase-3/7 activity (RFLU) ([3]; CHEM 10 μM + RT 5 Gray simultaneously, 24 hours, means±SEM, p < 0.0001 vs CHEM and RT): 1514 ± 102 RFLU
Caspase-3/7 activity (RFLU) ([3]; CHEM 10 μM alone, 24 hours, means±SEM, three experiments, Control 193 ± 39): 580 ± 207 RFLU
Caspase-3/7 activity (RFLU) ([3]; Contr. + 5 μM CHEM, 22 hours after CHEM, Contr. 235): 380 RFLU
Caspase-3/7 activity (RFLU) ([3]; Contr. + 10 μM CHEM, 22 hours after CHEM): 436 RFLU
normalized ED50 (arrays B2, B1) ([4]; ratio to the largest value): 1

From patent publication US8324188B2, “Combinations of ET-18-O-CH3and anti-cancer agents for the treatment of cancer” (priority 2006, dated 2012)
